According to EP0237138A1, “Heterocyclic compounds, their preparation and, pharmaceutical compositions containing them” (YAMANOUCHI PHARMACEUTICAL CO. LTD., priority 1986, dated 1987):

Key:
[1] = biological target: T1, human placenta aldose reductase (Homo sapiens, UniProt P15121); assay: Aldose reductase-inhibitory activity (rate of disappearance of NADPH, glyceraldehyde substrate); assay type: biochemical; conditions: for inhibition at 1 µM: 10^-6(M); for inhibition at 0.1 µM: 10^-7(M)
T1 construct: a human placenta aldose reductase was purified to a single protein; from tissue; host or cells: human placenta
Experimental: The compound of the present invention, aldose reductase and nicotinamide adenine dinucleotide phosphate (NADPH) are dissolved in a buffer of pH 6.2 and incubated for 10 minutes at 25°C; glyceraldehyde is added thereto to start the reaction, and the rate of disappearance of NADPH is defined to be the enzyme activity of the aldose reductase.

[2] = tested on: Platelet aggregation in PRP; assay: Platelet aggregation-inhibitory activity (arachidonate-induced aggregation in platelet-rich plasma, Born's method); conditions: aggregation induced by arachidonate

Compound: O=C1NC(=S)SC1=C1C(=O)Nc2ccccc21 [Example 146, 3-(4-oxo-2-thioxo-3-thiazolidinylidene)-2-indolinone]
- inhibition at 1 µM [1]: 56%

Compound: COc1ccc2c(c1)CCCC2=C1SC(=S)N(CC(=O)O)C1=O [Example 7, 5-(6-methoxy-1,2,3,4-tetrahydro-1-natphylidene)-4-oxo-2-thioxo-3-thiazolidine-acetic acid]
- Platelet Aggregation Inhibition ([2]; 200 (μM)): 100%
- inhibition at 1 µM [1]: 93%
- inhibition at 0.1 µM [1]: 65%

Compound: N=C1NC(=O)C(=C2CCS(=O)(=O)c3ccccc32)S1 [Example 95, 4-(2-imino-4-oxo-5-thiazolidinylidene)thiochroman 1,1-dioxide]
- Platelet Aggregation Inhibition ([2]; 400 (μM)): 43%
- inhibition at 1 µM [1]: 65%
- inhibition at 0.1 µM [1]: 19%

Compound: O=C1NC(=S)SC1=C1C(=O)Nc2ccc(Br)cc21 [Example 67, 5-bromo-3-(4-oxo-2-thioxo-5-thiazolidinylidene)-2-indolinone]
- inhibition at 1 µM [1]: 64%

Compound: O=C1NC(=S)SC1=C1CCSc2ccccc21 [Example 105, 4-oxo-5-(4-thiochromanylidene)-2-thioxo-thiazolidine]
- inhibition at 1 µM [1]: 83%
- inhibition at 0.1 µM [1]: 29%

Compound: O=C1NC(=O)/C(=C2\CCS(=O)(=O)c3ccccc32)S1 [Example 99B, (Z)-4-(2,4-dioxo-5-thiazolidinylidene)thiochroman 1,1-dioxide]
- inhibition at 1 µM [1]: 87%
- inhibition at 0.1 µM [1]: 42%

Compound: O=C1NC(=S)SC1=C1CCCS(=O)(=O)c2ccccc21 [Example 49, 2,3,4,5-tetrahydro-5-(4-oxo-2-thioxo-5-thiazolidinylidene)-1-benzothiepine 1,1-dioxide]
- inhibition at 1 µM [1]: 65%
- inhibition at 0.1 µM [1]: 23%

Compound: COc1cccc2c1CCCC2=C1SC(=S)N(CC(=O)O)C1=O [Example 11, 5-(5-methoxy-1,2,3,4-tetrahydro-1-naphthylidene)-4-oxo-2-thioxo-3-thiazolidine-acetic acid]
- inhibition at 1 µM [1]: 89%
- inhibition at 0.1 µM [1]: 40%

Compound: O=C(O)c1ccc(N2C(=O)C(=C3CCS(=O)(=O)c4ccccc43)SC2=S)cc1 [Example 54, 4-[3-(p-carboxyphenyl)-4-oxo-2-thioxo-5-thiazolidinylidene]thiochroman 1,1-dioxide]
- Platelet Aggregation Inhibition ([2]; 200 (μM)): 65%
- inhibition at 1 µM [1]: 30%
- inhibition at 0.1 µM [1]: 15%

Compound: O=C1NC(=O)[C@@]2(CCOc3ccc(F)cc32)N1 [Sorbinil, reference compound]
- inhibition at 1 µM [1]: 53.6%
- inhibition at 0.1 µM [1]: 15%

Compound: O=C1NC(=S)SC1=C1C(=O)Nc2ccc(Cl)cc21 [Example 66, 5-chloro-3-(4-oxo-2-thioxo-5-thiazolidinylidene)-2-indolinone]
- inhibition at 1 µM [1]: 72%

Compound: O=C1NC(=S)SC1=C1C=CS(=O)(=O)c2ccccc21 [Example 119]
- Platelet Aggregation Inhibition ([2]; 400 (μM)): 84%
- inhibition at 1 µM [1]: 53%
- inhibition at 0.1 µM [1]: 37%
